Tested on: PL-induced carotid atherosclerosis in the LCA
Experiment: Plaque development in partially ligated LCA (long-term experiment)
Format: in vivo, mouse (ApoE−/−)
Conditions: free drug counterpart, repeated doses, without photoactivation
From the text: All animal experiments performed in this study have been approved by the Institutional Animal Care and Use Committee (IACUC) of Arizona State University, USA. Male ApoE^−/− mice (8-12 weeks old), purchased from The Jackson Laboratory, were subjected to the partial ligation (PL) procedure to induce inflammation and carotid atherosclerosis in the left carotid artery (LCA). All mice were fed a high-fat diet (Envigo #TD.88137) for 1 week prior to the PL procedure and continued to be fed the same diet until the time of euthanasia. […] For biodistribution analysis, MoNP-DiD was administered via retro-orbital injection to mice that underwent the PL 1 week prior. The arterial tissue (from carotid bifurcation to abdominal aorta) and organs were harvested 4 hours after the injection, and DiD intensity was quantified for each of the three individual zones within the arterial segments using fluorescent imaging. Subsequently, the left common CA was embedded in Tissue-Tek O.C.T. compound, cryosectioned, and stained with a CD31 antibody (R&D Systems #AF3628) and DAPI. For organ assessment, various tissues (kidney, lung, heart, gut, liver, and spleen) and plasma were homogenized, and the fluorescent intensity in homogenized tissues was measured. […] Serum samples isolated from the mice were analyzed to determine their lipid profile and metabolic panel. […]

Verteporfin [free VP]
plaque sizes: little-to-no effect on plaque sizes

— patent publication US20260345510A1, “MEMBRANE COATED NANOPARTICLES FOR DRUG DELIVERY” (Arizona Board Regents on Behalf of Arizona State University, priority 2022, published 2026)
